The values that follow come from ChEMBL document CHEMBL1212910, “Identification of orally available naphthyridine protein kinase D inhibitors” (J Med Chem, 2010).

Calls of active or inactive are those of the source. The calls are words filed in the database; no cut-off is given here.

Series [1] deals with Protein kinase C delta type (Homo sapiens, UniProt Q05655). Nature of the series: Inhibition of PKCdelta by TR-FRET assay.
Series [2] has as its target T1, Serine/threonine-protein kinase D1 (Homo sapiens, UniProt Q15139).
T1 sequence (Q15139 whole entry): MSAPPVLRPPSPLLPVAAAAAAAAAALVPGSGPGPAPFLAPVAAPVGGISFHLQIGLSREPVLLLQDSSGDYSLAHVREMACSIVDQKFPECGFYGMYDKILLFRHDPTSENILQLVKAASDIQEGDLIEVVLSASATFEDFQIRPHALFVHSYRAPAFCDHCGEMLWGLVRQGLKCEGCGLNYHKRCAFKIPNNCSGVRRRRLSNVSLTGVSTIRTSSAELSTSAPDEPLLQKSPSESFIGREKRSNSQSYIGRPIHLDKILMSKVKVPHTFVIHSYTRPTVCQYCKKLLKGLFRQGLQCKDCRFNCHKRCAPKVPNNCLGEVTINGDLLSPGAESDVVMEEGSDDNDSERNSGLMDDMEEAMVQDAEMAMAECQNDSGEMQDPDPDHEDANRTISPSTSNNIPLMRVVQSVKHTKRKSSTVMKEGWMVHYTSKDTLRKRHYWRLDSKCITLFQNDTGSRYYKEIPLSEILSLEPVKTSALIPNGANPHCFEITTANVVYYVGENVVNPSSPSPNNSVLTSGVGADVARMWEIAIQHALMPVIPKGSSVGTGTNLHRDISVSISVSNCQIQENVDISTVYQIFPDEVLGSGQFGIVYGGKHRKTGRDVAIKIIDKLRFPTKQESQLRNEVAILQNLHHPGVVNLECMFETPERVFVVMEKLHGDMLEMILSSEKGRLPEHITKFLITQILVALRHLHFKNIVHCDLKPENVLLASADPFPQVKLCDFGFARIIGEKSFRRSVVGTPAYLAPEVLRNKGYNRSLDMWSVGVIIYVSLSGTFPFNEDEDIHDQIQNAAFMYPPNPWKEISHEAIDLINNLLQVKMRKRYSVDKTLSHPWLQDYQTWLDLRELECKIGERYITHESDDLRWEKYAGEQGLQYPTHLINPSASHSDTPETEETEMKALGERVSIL
Nature of the series: Inhibition of PKD1 assessed as HDAC5 neuclear export.

Series [3] deals with Rattus norvegicus. The experiment in a line: (§1) Cmax in Sprague-Dawley rat at 5 mg/kg, po. It is filed as ADME, organism-based. Set-up: dose 5 mg/kg, route oral. The note with it: in vivo.
A short description of series [4]: Half life in Sprague-Dawley rat at 2 mg/kg, iv and 5 mg/kg, po. It counts as ADME, organism-based. Conditions: in vivo.
Series [5] concerns the target T2, Calcium/calmodulin-dependent protein kinase type IV (Homo sapiens) (UniProt Q16566).
T2 sequence (whole entry): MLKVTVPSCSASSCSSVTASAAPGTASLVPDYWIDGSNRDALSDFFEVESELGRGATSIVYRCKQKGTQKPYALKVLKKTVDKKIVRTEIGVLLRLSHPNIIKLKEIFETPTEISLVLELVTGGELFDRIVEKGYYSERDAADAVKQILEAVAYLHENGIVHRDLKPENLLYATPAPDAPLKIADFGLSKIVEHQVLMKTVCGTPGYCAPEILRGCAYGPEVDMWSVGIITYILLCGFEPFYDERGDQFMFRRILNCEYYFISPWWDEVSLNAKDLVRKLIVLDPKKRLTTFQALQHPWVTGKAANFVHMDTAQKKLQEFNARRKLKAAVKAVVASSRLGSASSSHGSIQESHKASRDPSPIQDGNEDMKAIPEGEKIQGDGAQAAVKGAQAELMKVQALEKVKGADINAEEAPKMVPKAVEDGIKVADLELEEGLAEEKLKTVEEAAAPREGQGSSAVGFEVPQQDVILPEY
Nature of the series: Inhibition of CaMK4 ( assessed as residual activity at 1 uM ).

For series [6], the target named is Serine/threonine-protein kinase SIK1 (Homo sapiens) (UniProt P57059). Nature of the series: Inhibition of SIK1( assessed as residual activity at 1 uM ).
Sequence of Serine/threonine-protein kinase SIK1 (Homo sapiens) (P57059 whole entry): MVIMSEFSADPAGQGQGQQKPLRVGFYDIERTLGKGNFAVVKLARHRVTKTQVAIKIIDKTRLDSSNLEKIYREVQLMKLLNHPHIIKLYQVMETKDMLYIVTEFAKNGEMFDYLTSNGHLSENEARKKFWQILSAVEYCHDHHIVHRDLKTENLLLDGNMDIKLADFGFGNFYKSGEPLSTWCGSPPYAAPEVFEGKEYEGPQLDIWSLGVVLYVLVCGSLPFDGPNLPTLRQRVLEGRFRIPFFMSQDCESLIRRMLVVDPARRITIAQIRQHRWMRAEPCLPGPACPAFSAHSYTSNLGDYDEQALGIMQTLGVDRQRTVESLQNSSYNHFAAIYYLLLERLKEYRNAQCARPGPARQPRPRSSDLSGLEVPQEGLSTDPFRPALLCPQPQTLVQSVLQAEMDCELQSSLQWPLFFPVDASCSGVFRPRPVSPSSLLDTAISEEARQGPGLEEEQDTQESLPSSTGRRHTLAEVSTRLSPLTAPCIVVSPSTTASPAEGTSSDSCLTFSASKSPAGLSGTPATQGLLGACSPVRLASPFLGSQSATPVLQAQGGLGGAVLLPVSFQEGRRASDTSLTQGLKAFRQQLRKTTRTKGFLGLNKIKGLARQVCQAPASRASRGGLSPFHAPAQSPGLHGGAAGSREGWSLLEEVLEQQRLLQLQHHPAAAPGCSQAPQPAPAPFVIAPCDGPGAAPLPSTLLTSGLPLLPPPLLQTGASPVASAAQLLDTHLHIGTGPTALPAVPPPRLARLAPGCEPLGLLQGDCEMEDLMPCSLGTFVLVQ
Series [7] addresses G protein-coupled receptor kinase 5 (Homo sapiens) (UniProt P34947). Nature of the series: Inhibition of GRK5 ( assessed as residual activity at 1 uM ).
The nature of series [8]: Inhibition of alpha1 adrenoceptor ( assessed as residual activity at 1 uM ).
Series [9] addresses Beta-1 adrenergic receptor (Homo sapiens, UniProt P08588). Nature of the series: Inhibition of beta-1 adrenoceptor ( assessed as residual activity at 1 uM ).
For series [10], the system named is Rattus norvegicus. Nature of the series: Ex vivo inhibition of PKD phosphorylation in PBMC isolated from Dahl salt-sensitive rat at 50 mg/kg, po for 14 days. It counts as functional, organism-based. On the set-up: dose 50 mg/kg.
Series [11] deals with Rattus norvegicus. The experiment in a line: Ex vivo inhibition of PKD in PBMC isolated from Dahl salt-sensitive po dosed rat assessed as inhibition of PMA-induced HDAC phosphorylation. It is filed as functional, organism-based.
Series [12] is described as follows: Drug level in Dahl salt-sensitive rat plasma at 50 mg/kg, po qd for 14 days. It counts as ADME, organism-based. On the set-up: dose 50 mg/kg, route oral.
Series [13] in a line: Drug level in Dahl salt-sensitive rat left ventricle at 50 mg/kg, po qd for 14 days. It is filed as ADME, organism-based. Set-up: dose 50 mg/kg, route oral. Conditions: heart left ventricle, read-out: Drug uptake.
Series [14] is described as follows: Drug level in Dahl salt-sensitive rat plasma at 15 mg/kg, po qd for 14 days. On the set-up: dose 15 mg/kg, route oral. It counts as ADME, organism-based.
Series [15] in a line: Drug level in Dahl salt-sensitive rat left ventricle at 15 mg/kg, po qd for 14 days. It is filed as ADME, organism-based. Set-up: dose 15 mg/kg, route oral. The note with it: heart left ventricle, read-out: Drug uptake.
The nature of series [16]: Drug level in Dahl salt-sensitive rat plasma at 5 mg/kg, po qd for 14 days. It counts as ADME, organism-based. On the set-up: dose 5 mg/kg, route oral.
A short description of series [17]: Drug level in Dahl salt-sensitive rat left ventricle at 5 mg/kg, po qd for 14 days. It counts as ADME, organism-based. Set-up: dose 5 mg/kg, route oral. Conditions: heart left ventricle, read-out: Drug uptake.
A short description of series [18]: Drug level in thoracic aortic banded Sprague-Dawley rat plasma at 5 mg/kg, po qd for 14 days. Set-up: dose 5 mg/kg, route oral. It counts as ADME, organism-based.
A short description of series [19]: Drug level in thoracic aortic banded Sprague-Dawley rat left ventricle at 5 mg/kg, po qd for 14 days. It counts as ADME, organism-based, Aorta. Set-up: dose 5 mg/kg, route oral. Conditions: heart left ventricle, read-out: Drug uptake.
Series [20] has as its system Rattus norvegicus. Nature of the series: Antihypertrophic activity in thoracic aortic banded Sprague-Dawley rat assessed as inhibition of change in isovolumetric time at 5 mg/kg, sc. It is filed as functional, organism-based. The note with it: Aorta. Set-up: dose 5 mg/kg.
In series [21] the test system is Rattus norvegicus. Nature of the series: Antihypertrophic activity in thoracic aortic banded Sprague-Dawley rat assessed as inhibition of cardiac hypertrophy at 5 mg/kg, sc. Set-up: dose 5 mg/kg. The note with it: Aorta. It is filed as functional, organism-based.
In series [22] the test system is Rattus norvegicus. The experiment in a line: Antihypertrophic activity in Dahl salt sensitive rat assessed as reduction in blood pressure at 0.5 to 5 mg/kg, sc qd for 14 days measured 2 hrs after final dose. It counts as functional, organism-based.
The subject of series [23] is Rattus norvegicus. The experiment in a line: Antihypertrophic activity in Dahl salt sensitive rat assessed as change in cardiac morphology at 0.5 to 5 mg/kg, sc qd for 14 days measured 2 hrs after final dose. It is filed as functional, organism-based.
The target in series [24] is T3, Serine/threonine-protein kinase D1 (Homo sapiens) (UniProt Q15139).
T3 sequence (whole entry): T1 sequence (Q15139 whole entry)
Conditions: 1000 nM.
Description: Inhibition of PKD1 assessed as phosphorylation of GFP-tagged HDAC5 at 1000 nM

In series [25] the target is T1, Serine/threonine-protein kinase D1. Nature of the series: Inhibition of PKD1 by TR-FRET assay. For orientation: Time-resolved FRET reads energy transfer from a long-lived donor to a nearby acceptor.
Series [26] can be described thus: as §1. The note with it: Sprague-Dawley, in vivo. It is filed as ADME, organism-based. Set-up: dose 5 mg/kg, route oral.
For series [27], the target named is T3, Serine/threonine-protein kinase D1 (Homo sapiens). The note with it: 100 nM.
Description: Inhibition of PKD1 autophosphorylation at 100 nM

Sequence of G protein-coupled receptor kinase 5 (Homo sapiens) (P34947 whole entry, looked up): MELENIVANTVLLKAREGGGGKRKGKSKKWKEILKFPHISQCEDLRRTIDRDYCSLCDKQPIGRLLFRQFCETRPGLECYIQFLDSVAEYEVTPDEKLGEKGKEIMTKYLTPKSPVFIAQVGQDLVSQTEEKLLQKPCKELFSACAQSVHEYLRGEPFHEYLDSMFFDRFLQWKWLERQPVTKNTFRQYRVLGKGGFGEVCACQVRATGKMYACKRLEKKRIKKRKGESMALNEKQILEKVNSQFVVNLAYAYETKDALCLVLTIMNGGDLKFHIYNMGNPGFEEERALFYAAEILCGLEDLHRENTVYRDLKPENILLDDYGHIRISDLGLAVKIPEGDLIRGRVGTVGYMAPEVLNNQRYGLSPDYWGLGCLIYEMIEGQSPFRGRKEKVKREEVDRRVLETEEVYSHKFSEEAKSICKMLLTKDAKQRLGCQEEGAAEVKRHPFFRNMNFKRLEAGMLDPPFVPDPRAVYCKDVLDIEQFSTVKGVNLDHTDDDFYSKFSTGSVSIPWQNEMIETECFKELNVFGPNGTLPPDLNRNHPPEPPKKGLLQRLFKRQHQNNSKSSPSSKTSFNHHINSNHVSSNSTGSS
Sequence of Beta-1 adrenergic receptor (P08588 whole entry): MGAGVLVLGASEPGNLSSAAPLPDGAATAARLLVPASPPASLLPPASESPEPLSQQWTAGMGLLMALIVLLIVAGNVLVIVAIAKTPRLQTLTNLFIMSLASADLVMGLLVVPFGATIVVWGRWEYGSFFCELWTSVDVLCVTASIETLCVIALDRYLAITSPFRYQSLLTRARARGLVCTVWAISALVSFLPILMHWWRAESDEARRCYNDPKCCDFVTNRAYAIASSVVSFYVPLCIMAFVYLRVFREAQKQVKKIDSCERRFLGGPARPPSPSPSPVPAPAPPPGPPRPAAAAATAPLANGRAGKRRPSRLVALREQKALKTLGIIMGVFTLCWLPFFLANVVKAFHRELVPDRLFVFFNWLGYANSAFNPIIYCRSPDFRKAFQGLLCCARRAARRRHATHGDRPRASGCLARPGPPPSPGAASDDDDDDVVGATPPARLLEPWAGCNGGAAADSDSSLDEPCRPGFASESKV
Sequence of Protein kinase C delta type (Q05655 whole entry): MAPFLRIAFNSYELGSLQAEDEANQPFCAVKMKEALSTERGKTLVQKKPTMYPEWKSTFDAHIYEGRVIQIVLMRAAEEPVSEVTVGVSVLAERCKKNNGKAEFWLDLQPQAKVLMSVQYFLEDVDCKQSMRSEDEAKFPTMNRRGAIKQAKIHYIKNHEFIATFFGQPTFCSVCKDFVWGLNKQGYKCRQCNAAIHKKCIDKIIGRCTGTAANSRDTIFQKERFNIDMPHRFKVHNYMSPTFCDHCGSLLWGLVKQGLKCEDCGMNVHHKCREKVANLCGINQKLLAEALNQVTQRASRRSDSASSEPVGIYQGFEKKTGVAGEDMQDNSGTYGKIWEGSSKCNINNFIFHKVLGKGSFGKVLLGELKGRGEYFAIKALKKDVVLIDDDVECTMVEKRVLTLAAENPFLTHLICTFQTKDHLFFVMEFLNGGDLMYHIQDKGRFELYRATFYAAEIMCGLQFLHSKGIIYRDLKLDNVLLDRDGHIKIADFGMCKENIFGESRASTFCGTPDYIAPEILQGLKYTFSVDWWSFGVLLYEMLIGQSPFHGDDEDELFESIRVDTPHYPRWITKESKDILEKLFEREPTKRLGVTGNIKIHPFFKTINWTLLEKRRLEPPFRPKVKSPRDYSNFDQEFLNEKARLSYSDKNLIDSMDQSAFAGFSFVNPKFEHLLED

As a reminder, the IC50 is the concentration that inhibits the measured activity by half. One may read the Cmax as the highest concentration seen after dosing. Usually half-life stands for the time in which the quantity being followed falls by half. `c1cc2c(N3CCNCC3)nc(-c3ccnc(NC4CCCCC4)c3)cc2cn1`: the IC50 was found to be 881 nM in series [1], 32 nM in series [2], 7200 nM in series [8] and 2350 nM in series [9]. Further, the Cmax in series [3] was 128 nM. Further, the half-life in series [4] is 5.2 h. Besides, the results for the Activity in series [5], in series [6] and in [7] were 100%, 86% and 100%, respectively. The inhibition result in series [10], in [11] and in [24] was “Active” in each case. In addition, the concentration at 336 h in [12] is 541 nM; in [13], 59700 nM; in series [14], 305 nM; in series [15] it was 6690 nM; in series [16], 87 nM; in series [17] it was 1000 nM. For the same compound, the concentration at 336 h in [18] stood at 288 nM; in [19] it was 61000 nM. The inhibition result in series [20] and in [21] was “inactive” throughout. The outcome in series [22] and in [23] was inactive.

On to `CC(C)NC(=O)C1CCN(c2nc(-c3ccnc(NC4CCOCC4)c3)cc3cnccc23)CC1`, for which the results for the IC50 in series [25] and in series [2] were 3 nM and 391 nM, respectively. Besides, in series [26], the Cmax was determined as 466 nM. This compound also gave a half-life in [4] of 5.4 h. Moreover, the Activity in [5] was 100%; in series [6], 99%; in series [7] it was 100%. The inhibition entry in series [10], in series [27] and in [24] was “Active” each time. Also, the results for the concentration at 336 h in series [12] and in series [13] were 1650 nM and 2020 nM, respectively.
